Results on 1 molecule are retold here after US12350273B2, “Treatment of SMA” (Hoffmann-La Roche Inc., priority 2017, dated 2025).

One test deals with human iPSCs. As to the kind of experiment: Cell cycle analysis of human iPSCs (flow cytometry). Particulars: 24 h, 30 nM (positive control). Format: cell-based. The protocol: (§1) For the analysis of the cell cycle, monkey stem cells were detached with Accutase (Stem Cell Technologies) and plated at 15000 cells/cm2 in 6 well plates coated with Matrigel (BD Biosciences) in MT medium supplemented with 10 ng/ml ActivinA, 15 ng/ml FGF2, and 10 μM Rock inhibitor. Cells were expanded for 1 day and then synchronized by starvation for 7 h in MT medium without supplements FGF2 and ActivinA. Before flow cytometry, cells were incubated for 24 h with fresh MT medium containing supplements FGF2 and ActivinA and test items at 80 nM, 400 nM, and 2000 nM or 30 nM rapamycin as positive control to arrest cells in G1 phase. Human stem cells were detached with Accutase (Stem Cell Technologies) and plated at 40000 cells/cm2 in 6 well plates coated with Matrigel (BD Biosciences) in mTeSR1 supplemented with 10 μM Rock Inhibitor Y-27632 (Sigma-Aldrich). Cells were expanded for 3 days with daily medium change. Since human iPSCs lose their properties during starvation by growth factor withdrawal, stem cells were synchronized with 200 ng/ml Nocodazole (Sigma-Aldrich) for 5 h and washed subsequently 2 times with mTesR1 Medium. Before flow cytometry, cells were incubated for 24 h with fresh TesR1 medium containing test items at 80 nM, 400 nM, and 2000 nM or 30 nM rapamycin as positive control to arrest cells in G1 phase.
(§2) For cell cycle analysis, human iPSCs were washed with PBS, detached with Accutase (Stem Cell Technologies) and collected by centrifugation. Cells were stained for 1 h at 37° C. with 600 ul of 7 AAD/Saponin/RNAse mix ([…] 7 AAD (#559925, BD), 50 μg/ml RNase, and 0.03% Saponin dissolved in FACS buffer (PBS, 5% FBS, 10 mM Hepes)). Cynomolgus monkey iPSCs were washed with PBS, detached with Accutase (Stem Cell Technologies) and collected by centrifugation. Cells were stained for 30 min at 37° C. in 300 ul standard MT medium (with FGF2 and ActivinA) containing 1 ul Vybrant Dye Cycle Violet Stain (#V35003, 1000× stock, Invitrogen) per ml medium. Additionally 2 ul 7 AAD (50 μg/ml 7 AAD) were added without permeabilization to label dead cells; cells were incubated for 10 min at 37° C. Flow cytometry analysis was performed using a Canto II cytometer (BD Biosciences) and data were analysed with the FlowJo software.
On the technique in general: Flow cytometry measures light scatter and fluorescence of single cells or particles in a stream.

In the next test the test system is Cynomolgus monkey iPSCs. The test is described as follows: Cell cycle analysis of Cynomolgus monkey iPSCs (flow cytometry). Format: cell-based. Conditions: Cynomolgus monkey iPSCs, 24 h, 30 nM (positive control). On the procedure:
as §1, §2

For the molecule `CO[C@H]1C[C@@H]2CC[C@@H](C)[C@@](O)(O2)C(=O)C(=O)N2CCCC[C@H]2C(=O)O[C@H]([C@H](C)C[C@@H]2CC[C@@H](O)[C@H](OC)C2)CC(=O)[C@H](C)/C=C(\C)[C@@H](O)[C@@H](OC)C(=O)[C@H](C)C[C@H](C)/C=C/C=C/C=C/1C` [Rapamycin, reference compound], in the test on human iPSCs, the “percentage of events in G1 phase, mean” value came out at 58.3%; the “percentage of events in G2 phase, mean” value is on record as 30.5%; the “percentage of events in S phase, mean” value amounted to 11.2%. Moreover, in the test with Cynomolgus monkey iPSCs, the “percentage of events in G1 phase, mean” value was determined as 41.7%; the “percentage of events in G2 phase, mean” value is 45.6%; the “percentage of events in S phase, mean” value is given as 12.7%.
